Test results: US8410174B2, “Method for treating arthritis” (AnaMar AB, priority 2000, dated 2013)

Key:
[1] = target: MC1-receptor (Mus musculus, UniProt Q01727); assay: Affinity for the MC1-receptor, binding assay with I125-NDP-αMSH as ligand; settings: read-out: Affinity for MC-receptors Ki MC1
Protocol: Test 1. Affinity for the MC1-receptor
The binding assay was carried out essentially as described by Lunec et al, Melanoma Res 1992; 2; 5-12, using I^125-NDP-αMSH as ligand.

[2] = target: T1, MC3 (Homo sapiens, UniProt P41968); assay: Affinity for the MC3-receptors, binding assay with I125-NDP-αMSH as ligand; settings: read-out: Affinity for MC-receptors Ki MC3
T1 sequence (P41968 whole entry): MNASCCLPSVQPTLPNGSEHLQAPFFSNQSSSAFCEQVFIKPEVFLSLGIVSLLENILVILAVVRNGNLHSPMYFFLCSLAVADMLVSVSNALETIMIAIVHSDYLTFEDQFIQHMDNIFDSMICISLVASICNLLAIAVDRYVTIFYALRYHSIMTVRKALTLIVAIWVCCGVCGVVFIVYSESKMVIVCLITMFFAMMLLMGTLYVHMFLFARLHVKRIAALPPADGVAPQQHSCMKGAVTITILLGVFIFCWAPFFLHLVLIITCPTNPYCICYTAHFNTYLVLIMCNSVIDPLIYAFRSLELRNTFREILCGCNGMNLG
Protocol: (§1) Test 2. Affinity for the MC3-Receptors, the MC4-Receptors and the MC5-Receptors
(§2) The binding assays were carried out essentially as described by Szardenings et al, J Biol Chem 1997; 272; 27943-27948 and Schiöth et al, FEES Lett 1997; 410; 223-228 using I^125-NDP-αMSH as ligand.

[3] = target: T2, MC4 (Homo sapiens, UniProt P32245); assay: Affinity for the MC4-receptors, binding assay with I125-NDP-αMSH as ligand; settings: read-out: Affinity for MC-receptors Ki MC4
T2 sequence (P32245 whole entry): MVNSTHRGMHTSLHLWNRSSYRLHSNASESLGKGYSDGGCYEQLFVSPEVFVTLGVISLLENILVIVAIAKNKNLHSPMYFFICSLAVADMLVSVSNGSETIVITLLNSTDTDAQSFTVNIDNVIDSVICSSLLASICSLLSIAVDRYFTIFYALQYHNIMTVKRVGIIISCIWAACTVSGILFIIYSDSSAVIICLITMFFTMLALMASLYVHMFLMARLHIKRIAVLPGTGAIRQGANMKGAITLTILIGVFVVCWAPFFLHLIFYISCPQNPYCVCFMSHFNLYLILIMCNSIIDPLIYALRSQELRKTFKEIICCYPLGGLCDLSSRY
Protocol: as §1, §2

[4] = target: T3, MC5 (Homo sapiens, UniProt P33032); assay: Affinity for the MC5-receptors, binding assay with I125-NDP-αMSH as ligand; settings: read-out: Affinity for MC-receptors Ki MC5
T3 sequence (P33032 whole entry): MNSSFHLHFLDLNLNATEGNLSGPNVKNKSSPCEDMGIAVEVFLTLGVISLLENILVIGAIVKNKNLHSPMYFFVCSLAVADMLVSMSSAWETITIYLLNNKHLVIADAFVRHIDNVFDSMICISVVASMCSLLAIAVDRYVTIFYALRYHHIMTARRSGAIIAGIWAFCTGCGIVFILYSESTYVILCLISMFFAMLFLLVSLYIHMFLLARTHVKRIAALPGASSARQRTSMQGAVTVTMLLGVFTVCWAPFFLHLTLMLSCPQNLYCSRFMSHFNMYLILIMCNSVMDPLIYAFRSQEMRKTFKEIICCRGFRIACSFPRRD
Protocol: as §1, §2

[5] = target: MC1 (Homo sapiens, UniProt Q01726); assay: Stimulation of cAMP, MC1; assay type: cell-based
Chain of MC1 (Q01726 whole entry): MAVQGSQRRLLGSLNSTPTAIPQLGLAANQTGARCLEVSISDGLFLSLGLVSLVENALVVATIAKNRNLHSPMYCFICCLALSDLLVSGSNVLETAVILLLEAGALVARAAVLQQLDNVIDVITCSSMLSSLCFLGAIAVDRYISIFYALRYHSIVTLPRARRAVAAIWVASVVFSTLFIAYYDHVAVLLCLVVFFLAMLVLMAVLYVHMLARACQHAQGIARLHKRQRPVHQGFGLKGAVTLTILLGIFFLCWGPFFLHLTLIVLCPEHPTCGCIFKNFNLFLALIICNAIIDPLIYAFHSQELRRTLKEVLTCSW
Protocol: (§3) The stimulation of cAMP was carried out essentially as described by Schiöth et al, Br J Pharmacol 1998; 124; 75-82.

[6] = target: T1, MC3; assay: Stimulation of cAMP, MC3; assay type: cell-based
Protocol: as §3

[7] = target: T2, MC4; assay: Stimulation of cAMP, MC4; assay type: cell-based
Protocol: as §3

[8] = target: T3, MC5; assay: Stimulation of cAMP, MC5; assay type: cell-based
Protocol: as §3

[9] = system: melanocortin receptors; assay: Affinity to the melanocortin receptors; assay type: binding

Chain of MC1-receptor (Q01727 whole entry): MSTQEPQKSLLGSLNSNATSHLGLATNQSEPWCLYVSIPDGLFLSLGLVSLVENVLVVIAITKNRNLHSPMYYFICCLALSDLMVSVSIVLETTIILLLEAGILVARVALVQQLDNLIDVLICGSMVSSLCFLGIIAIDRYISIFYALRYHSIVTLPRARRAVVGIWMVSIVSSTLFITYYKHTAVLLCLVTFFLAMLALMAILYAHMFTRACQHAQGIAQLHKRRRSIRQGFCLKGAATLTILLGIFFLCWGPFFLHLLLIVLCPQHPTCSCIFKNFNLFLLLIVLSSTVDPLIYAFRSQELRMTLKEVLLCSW

Compound	melting point	other results
CC(=O)O.COc1c(C)cc(C=NNC(=N)N)cc1Br	163 to 166 °C	–
CC(=O)O.N=C(N)NN=Cc1ccc(Br)cc1F	187 to 188 °C	–
CC(=O)O.COc1cc(O)c(C=NNC(=N)N)c(OC)c1	115 to 118 °C	–
CC(=O)O.COc1cc([N+](=O)[O-])c([N+](=O)[O-])c(C=NNC(=N)N)c1OC	165 to 171 °C	–
CC(=O)O.COc1ccc(C=NNC(=N)N)c(Cl)c1OC	198 to 200 °C	–
CC(=O)O.N=C(N)NN=Cc1c(Cl)ccc(Cl)c1[N+](=O)[O-]	219.5 to 221 °C	–
CC(=O)O.COc1c(Cl)cc(C=NNC(=N)N)cc1[N+](=O)[O-]	255 to 258 °C (dec.)	–
Cc1ccc(S(=O)(=O)O)cc1.N=C(NO)NN=Cc1cc(Cl)ccc1[N+](=O)[O-] [1:4, N-(5-Chloro-2-nitrobenzylideneamino)-N′-hydroxyguanidine tosylate]	–	Ki [1]: 42 µM; Ki [2]: 68 µM; Ki [3]: 61 µM; Ki [4]: 33 µM; Influence on cAMP MC1c [5]: 6.4; Influence on cAMP MC3c [6]: 1; Influence on cAMP MC4c [7]: 17.1; Influence on cAMP MC5c [8]: 8.7
CC(=O)O.Cc1ccc(C=NNC(=N)N)c([N+](=O)[O-])c1O	240 to 241 °C	–
Cc1cc(O)c(C=NNC(=N)N)cc1[N+](=O)[O-].Cl	229 to 230 °C	–
CC(=O)O.COc1ccc(C=NNC(=N)N)c(O)c1	161 to 164 °C	–
COc1cc([N+](=O)[O-])cc(C=NNC(=N)NO)c1OC.Cl	196 to 197.5 °C	–
Cl.N=C(N)NN=Cc1cc(Br)cc([N+](=O)[O-])c1O	> 250 °C	–
COc1ccc([N+](=O)[O-])c(C=NNC(=N)N)c1[N+](=O)[O-].Cl	217 to 218 °C	–
CC(=O)O.N=C(N)NN=Cc1cc([N+](=O)[O-])c(Br)cc1F	175 to 198 °C (dec.)	–
COc1ccc(C=NNC(=N)NO)cc1Br.Cc1ccc(S(=O)(=O)O)cc1 [1:3, N-(3-Bromo-4-methoxybenzylideneamino)-N′-hydroxyguanidine tosylate]	–	Ki [1]: 42 µM; Ki [2]: 91 µM; Ki [3]: 62 µM; Ki [4]: 47 µM; Influence on cAMP MC1c [5]: 8.4; Influence on cAMP MC3c [6]: 16; Influence on cAMP MC4c [7]: 31.8; Influence on cAMP MC5c [8]: 4.7
CC(=O)O.COc1ccc(C=NNC(=N)N)cc1[N+](=O)[O-]	144 to 147 °C	–
COc1c(C=NNC(=N)N)cc(Br)cc1[N+](=O)[O-].Cl	258 to 259 °C	–

Compound	melting point	other results
CC(=O)O.N=C(N)NN=Cc1cc([N+](=O)[O-])ccc1F	192 to 195 °C	–
CC(=O)O.COc1cc(Cl)c([N+](=O)[O-])cc1C=NNC(=N)N	196 to 199 °C	–
CC(=O)O.N=C(N)NN=Cc1ccc(F)c(F)c1	176 to 178 °C	–
CC(=O)O.N=C(N)NN=Cc1cc(Cl)cc(Cl)c1[N+](=O)[O-]	88 to 91 °C	–
COc1ccc(C=NNC(=N)N)cc1Br.Cl	261 to 262.5 °C	–
CC(=O)O.N=C(N)NN=Cc1cc([N+](=O)[O-])ccc1Cl	222 to 224 °C (dec.)	–
CC(=O)O.COc1c(Cl)cc(C=NNC(=N)N)cc1Cl	185 to 190 °C	–
CC(=O)O.N=C(N)NN=Cc1ccc(Br)c([N+](=O)[O-])c1	152 to 153 °C	–
CC(=O)O.N=C(N)NN=Cc1ccc([N+](=O)[O-])cc1[N+](=O)[O-]	224 to 226 °C	–
N=C(N)N/N=C/c1c(Cl)cccc1Cl [Guanabenz]	–	affinity to the melanocortin receptors [9]: no affinity
Cl.N=C(N)NN=Cc1c(Cl)ccc([N+](=O)[O-])c1[N+](=O)[O-]	153 to 154.5 °C	–
COc1ccc(C=NNC(=N)N)c(OC)c1OC.Cl	181 to 183 °C	–
CC(=O)O.N=C(N)NN=Cc1cc([N+](=O)[O-])cc([N+](=O)[O-])c1.O.O (hydrate or solvate)	251 to 254 °C (dec.)	–
N=C(NO)NN=Cc1ccccc1S(=O)(=O)O [1:134, N-(2-Sulphobenzylideneamino)-N′-hydroxyguanidine]	243.5 to 244 °C	–
Cl.N=C(N)NN=Cc1c([N+](=O)[O-])ccc(Br)c1[N+](=O)[O-]	166.5 to 168 °C	–
CC(=O)O.COc1cc(OC)c([N+](=O)[O-])cc1C=NNC(=N)N	207 to 210 °C	–
Cl.N=C(N)NN=Cc1ccccc1S(=O)(=O)O	> 260 °C	–

Further lines, with some results ahead:

melting point	Compound	other results
237 to 238 °C	COc1cc([N+](=O)[O-])cc(C=NNC(=N)N)c1OC.Cl	–
172 to 173.5 °C	CC(=O)O.N=C(N)NN=Cc1ccc(F)c(Br)c1	–
219 to 221 °C	COc1ccc(C=NNC(=N)NO)cc1[N+](=O)[O-] [1:76, N-(4-Methoxy-3-nitrobenzylideneamino)-N′-hydroxyguanidine]	–
203 to 204 °C	Cl.N=C(N)NN=Cc1cccc(I)c1	–
243 to 246 °C	COc1cc([N+](=O)[O-])cc(C=NNC(=N)N)c1O.Cl	–
231 to 233 °C	CC(=O)O.N=C(N)NN=Cc1cc(F)cc(F)c1[N+](=O)[O-]	–
191 to 194 °C	CC(=O)O.COc1cc([N+](=O)[O-])cc(C=NNC(=N)N)c1OC	–
136.5 to 137 °C	CC(=O)O.N=C(N)NN=Cc1cc(Cl)cc([N+](=O)[O-])c1Br	–
66 to 68 °C	CC(=O)O.COc1cc(OC)c(C=NNC(=N)N)c(OC)c1	–
149 to 151.5 °C	CC(=O)O.N=C(N)NN=Cc1cccc(F)c1F	–
222 to 224 °C (dec.)	CC(=O)O.N=C(N)NN=Cc1ccc(F)c([N+](=O)[O-])c1	–
138.5 to 141 °C	CC(=O)O.N=C(N)NN=Cc1c(F)cccc1F	–
223 to 225 °C	CC(=O)O.COc1cc(C=NNC(=N)N)cc(OC)c1OC	–
246.5 to 248 °C	Cc1cc([N+](=O)[O-])c(C=NNC(=N)N)cc1Br.Cl	–
